Measured values reported in publication PMC6613932 (Bioorganic & medicinal chemistry letters, 2018).

Target: 5-HT2AR (Homo sapiens, UniProt P28223)
Experiment: Inhibition of 5-HT
Assay type: cell-based
Conditions: inhibition of 1 μM 5-HT-evoked Cai2+ release; compared with parent (+)-M100907

Chain of 5-HT2AR (P28223 whole entry): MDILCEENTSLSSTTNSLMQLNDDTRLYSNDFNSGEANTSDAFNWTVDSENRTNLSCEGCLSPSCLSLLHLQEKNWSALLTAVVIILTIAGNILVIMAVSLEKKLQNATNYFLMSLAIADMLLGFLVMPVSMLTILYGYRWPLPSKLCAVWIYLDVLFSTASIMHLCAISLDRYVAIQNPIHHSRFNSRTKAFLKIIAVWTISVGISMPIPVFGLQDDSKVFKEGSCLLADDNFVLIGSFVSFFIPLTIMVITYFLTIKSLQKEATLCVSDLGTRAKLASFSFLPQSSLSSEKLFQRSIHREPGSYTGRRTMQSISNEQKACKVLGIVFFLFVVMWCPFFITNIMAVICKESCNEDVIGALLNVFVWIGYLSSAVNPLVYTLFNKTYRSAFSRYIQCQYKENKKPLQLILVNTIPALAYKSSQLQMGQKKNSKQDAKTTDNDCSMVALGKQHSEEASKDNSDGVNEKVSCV

Structure (SMILES) | antagonist activity / potency in words
COc1c(OCCOCCN=[N+]=[N-])cccc1[C@H](O)C1CCN(CCc2ccc(F)cc2)CC1 [Compound 4] | retained antagonist activity
C#CCOCCOCCOc1cccc([C@H](O)C2CCN(CCc3ccc(F)cc3)CC2)c1OC [Compound 5] | slightly lower potency
COc1c(OCCOCCOc2cn(CCOCCOc3cccc([C@H](O)C4CCN(CCc5ccc(F)cc5)CC4)c3OC)nn2)cccc1[C@H](O)C1CCN(CCc2ccc(F)cc2)CC1 [Compound 15] | slightly lower potency
